In ChEMBL document CHEMBL2074333, “BPR0L075, a novel synthetic indole compound with antimitotic activity in human cancer cells, exerts effective antitumoral activity in vivo” (Cancer Res, 2004) one finds Activity data, which are given here for four compounds.

In data set [1] the target is T1, ATP-dependent translocase ABCB1 (Homo sapiens, UniProt P08183). The data set can be described thus: TP_TRANSPORTER: drug resistance in KB-TAX50 cells. Type of data set: functional, cell-based.
Data set [2] has as its target T1, ATP-dependent translocase ABCB1. As to the kind of experiment: TP_TRANSPORTER: drug resistance in KB-VIN10 cells. The data set is classed as functional, cell-based.

T1 sequence (P08183 whole entry): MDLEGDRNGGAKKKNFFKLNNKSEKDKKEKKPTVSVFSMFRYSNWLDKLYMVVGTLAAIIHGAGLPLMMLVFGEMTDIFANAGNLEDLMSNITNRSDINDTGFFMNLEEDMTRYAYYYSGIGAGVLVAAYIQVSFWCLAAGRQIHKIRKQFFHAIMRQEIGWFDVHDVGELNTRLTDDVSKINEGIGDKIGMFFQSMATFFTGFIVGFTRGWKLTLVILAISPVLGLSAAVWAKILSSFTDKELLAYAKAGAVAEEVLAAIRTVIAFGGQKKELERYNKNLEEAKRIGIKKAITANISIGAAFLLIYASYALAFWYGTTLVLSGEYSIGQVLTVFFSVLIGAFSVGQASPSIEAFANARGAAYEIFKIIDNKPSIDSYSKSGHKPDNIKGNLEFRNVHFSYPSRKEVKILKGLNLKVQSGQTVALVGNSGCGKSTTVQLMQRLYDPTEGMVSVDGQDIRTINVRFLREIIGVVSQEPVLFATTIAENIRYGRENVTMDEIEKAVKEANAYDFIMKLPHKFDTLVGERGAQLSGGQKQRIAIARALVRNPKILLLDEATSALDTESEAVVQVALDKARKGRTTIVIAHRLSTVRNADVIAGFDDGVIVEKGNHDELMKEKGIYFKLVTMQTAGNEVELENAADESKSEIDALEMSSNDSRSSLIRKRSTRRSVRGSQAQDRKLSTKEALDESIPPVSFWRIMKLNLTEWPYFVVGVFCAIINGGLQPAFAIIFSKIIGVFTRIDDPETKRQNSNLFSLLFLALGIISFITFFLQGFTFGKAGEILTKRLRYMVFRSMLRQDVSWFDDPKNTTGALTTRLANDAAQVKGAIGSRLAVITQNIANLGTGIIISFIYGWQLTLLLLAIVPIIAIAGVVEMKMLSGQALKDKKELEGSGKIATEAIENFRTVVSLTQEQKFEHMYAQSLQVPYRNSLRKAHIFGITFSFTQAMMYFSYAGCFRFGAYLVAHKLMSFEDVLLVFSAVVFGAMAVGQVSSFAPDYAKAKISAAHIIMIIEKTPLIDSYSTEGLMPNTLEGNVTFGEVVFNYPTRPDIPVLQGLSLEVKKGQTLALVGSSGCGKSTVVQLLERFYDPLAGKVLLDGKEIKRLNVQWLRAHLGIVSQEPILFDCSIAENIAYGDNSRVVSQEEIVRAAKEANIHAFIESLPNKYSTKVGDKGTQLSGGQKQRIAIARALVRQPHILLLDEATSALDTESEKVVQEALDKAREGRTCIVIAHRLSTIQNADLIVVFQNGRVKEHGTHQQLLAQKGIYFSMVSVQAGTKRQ

On to `COc1ccc2c(C(=O)c3cc(OC)c(OC)c(OC)c3)c[nH]c2c1`, for which the Activity result in data set [1] and in data set [2] was “is not a substrate [-]” each time.

As for `COc1cc2c(c(OC)c1OC)-c1ccc(OC)c(=O)cc1[C@@H](NC(C)=O)CC2` [COLCHICINE], the Activity entry in data set [1] and in data set [2] was “substrate [+]” each time.

On to `CC(=O)O[C@H]1C(=O)[C@@]2(C)[C@H]([C@H](OC(=O)c3ccccc3)[C@]3(O)C[C@H](OC(=O)[C@H](O)[C@@H](NC(=O)c4ccccc4)c4ccccc4)C(C)=C1C3(C)C)[C@]1(OC(C)=O)CO[C@@H]1C[C@@H]2O` [PACLITAXEL], for which the Activity entry in data set [1] and in data set [2] was “substrate [+]” in each case.

Regarding `CC[C@]1(O)C[C@H]2CN(CCc3c([nH]c4ccccc34)[C@@](C(=O)OC)(c3cc4c(cc3OC)N(C=O)[C@H]3[C@@](O)(C(=O)OC)[C@H](OC(C)=O)[C@]5(CC)C=CCN6CC[C@]43[C@@H]65)C2)C1` [VINCRISTINE], the Activity entry in data set [1] and in data set [2] was “substrate [+]” each time.
